Reference: ChEMBL document CHEMBL1932960, “Discovery and characterization of a potent and selective antagonist of melanin-concentrating hormone receptor 2” (Bioorg Med Chem Lett, 2012)
Calls of active or inactive are those of the source. The rule behind the calls is not given here.

Tests used:
[1] = biological target: T1, Melanin-concentrating hormone receptor 2 (Homo sapiens, UniProt Q969V1); experiment: Antagonist activity at human MCHR2 receptor expressed in CHO cells assessed as inhibition of MCH-stimulated Ca2+ flux preincubated for 10 mins prior to MCH-stimulation by FLIPR assay; format: functional, cell-based
[2] = Clearance in rat at 0.5 mg/kg, iv; format: ADME, organism-based; parameters: dose 0.5 mg/kg, route intravenous; conditions: in vivo
[3] = Mean residence time in rat at 0.5 mg/kg, iv; format: ADME, organism-based; parameters: dose 0.5 mg/kg, route intravenous; conditions: in vivo
[4] = Oral bioavailability in rat at 2 mg/kg; format: ADME, organism-based; conditions: in vivo
[5] = biological target: T2, Melanin-concentrating hormone receptor 1 (Homo sapiens, UniProt Q99705); experiment: Antagonist activity at MCHR1 by FLIPR assay; format: functional
[6] = biological target: T1, Melanin-concentrating hormone receptor 2; experiment: Displacement of [3H]N-(1'-((9-ethyl-9H-carbazol-3-yl)methyl)-2,3-dihydrospiro[indene-1,4'-piperidine]-3-yl)acetamide from human MCHR2 expressed in HEK293 cells after 2 hrs; format: cell-based
[7] = biological target: T2, Melanin-concentrating hormone receptor 1; experiment: Binding affinity to MCHR1 up to 10 uM
[8] = biological target: T2, Melanin-concentrating hormone receptor 1; experiment: Antagonist activity at MCHR1 up to 50 uM by FLIPR assay; format: functional
D(2) dopamine receptor = D(2) dopamine receptor (Homo sapiens, UniProt P14416); experiment: Inhibition of dopamine D2 receptor
[9] = biological target: Sodium-dependent serotonin transporter (Homo sapiens, UniProt P31645); experiment: Inhibition of serotonin transporter
[10] = Clearance in Beagle dog; format: ADME, organism-based, Canis lupus familiaris; conditions: in vivo
[11] = Mean residence time in Beagle dog; format: ADME, organism-based, Canis lupus familiaris; conditions: in vivo
[12] = Oral bioavailability in Beagle dog at 2 mg/kg; format: ADME, organism-based, Canis lupus familiaris; conditions: in vivo
[13] = Clearance in rhesus monkey; format: ADME, organism-based, Macaca mulatta; conditions: in vivo
[14] = Mean residence time in rhesus monkey; format: ADME, organism-based, Macaca mulatta; conditions: in vivo
[15] = Oral bioavailability in rhesus monkey at 2 mg/kg; format: ADME, organism-based, Macaca mulatta; conditions: in vivo
Homo sapiens [16] = organism: Homo sapiens; experiment: Selectivity ratio of IC50 for serotonin transporter to IC50 for human MCHR2 receptor
Homo sapiens [17] = organism: Homo sapiens; experiment: Selectivity ratio of IC50 for dopamine D2 receptor to IC50 for human MCHR2 receptor
[18] = biological target: Voltage-gated inwardly rectifying potassium channel KCNH2 (Homo sapiens, UniProt Q12809); experiment: Inhibition of human ERG by rubidium [86Rb] efflux assay
Chain of Voltage-gated inwardly rectifying potassium channel KCNH2 (Q12809 whole entry): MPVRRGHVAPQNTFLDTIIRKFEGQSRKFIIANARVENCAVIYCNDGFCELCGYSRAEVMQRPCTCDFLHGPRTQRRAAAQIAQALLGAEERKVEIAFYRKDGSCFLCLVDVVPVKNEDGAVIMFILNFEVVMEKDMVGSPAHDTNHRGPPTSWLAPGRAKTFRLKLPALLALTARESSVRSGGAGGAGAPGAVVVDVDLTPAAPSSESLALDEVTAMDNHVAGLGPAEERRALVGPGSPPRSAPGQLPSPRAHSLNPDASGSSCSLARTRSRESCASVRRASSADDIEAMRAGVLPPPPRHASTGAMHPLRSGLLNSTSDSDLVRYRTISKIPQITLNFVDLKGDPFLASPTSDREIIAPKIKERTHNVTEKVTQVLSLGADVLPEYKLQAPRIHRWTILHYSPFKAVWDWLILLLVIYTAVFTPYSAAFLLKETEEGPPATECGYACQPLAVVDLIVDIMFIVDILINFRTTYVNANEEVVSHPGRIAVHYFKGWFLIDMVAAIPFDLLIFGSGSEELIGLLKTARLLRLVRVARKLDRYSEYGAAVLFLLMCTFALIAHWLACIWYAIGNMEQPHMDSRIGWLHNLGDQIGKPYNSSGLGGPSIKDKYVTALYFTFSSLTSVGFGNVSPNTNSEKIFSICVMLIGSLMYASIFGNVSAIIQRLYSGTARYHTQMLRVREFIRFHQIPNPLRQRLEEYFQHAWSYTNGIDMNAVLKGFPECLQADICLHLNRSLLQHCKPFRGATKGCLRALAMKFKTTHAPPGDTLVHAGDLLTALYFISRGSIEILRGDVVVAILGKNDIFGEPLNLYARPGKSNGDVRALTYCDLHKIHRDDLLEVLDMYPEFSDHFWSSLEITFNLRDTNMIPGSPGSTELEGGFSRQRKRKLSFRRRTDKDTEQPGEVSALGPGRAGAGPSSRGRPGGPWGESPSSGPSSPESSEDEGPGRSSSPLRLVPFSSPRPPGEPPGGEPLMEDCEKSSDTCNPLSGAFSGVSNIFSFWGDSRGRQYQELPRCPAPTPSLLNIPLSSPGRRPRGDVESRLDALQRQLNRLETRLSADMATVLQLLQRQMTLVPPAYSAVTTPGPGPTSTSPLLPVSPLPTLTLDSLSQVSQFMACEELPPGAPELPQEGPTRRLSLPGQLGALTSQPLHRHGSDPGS

T1 sequence (Q969V1 whole entry): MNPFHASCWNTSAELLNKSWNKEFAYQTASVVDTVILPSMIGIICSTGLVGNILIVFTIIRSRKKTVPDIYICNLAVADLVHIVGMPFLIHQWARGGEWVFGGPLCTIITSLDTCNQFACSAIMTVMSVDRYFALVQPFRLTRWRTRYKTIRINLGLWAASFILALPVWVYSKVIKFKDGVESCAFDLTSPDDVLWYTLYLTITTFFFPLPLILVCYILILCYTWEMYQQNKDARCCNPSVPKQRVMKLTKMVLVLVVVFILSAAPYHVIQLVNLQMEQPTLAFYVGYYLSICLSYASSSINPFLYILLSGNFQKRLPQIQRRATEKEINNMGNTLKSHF
T2 sequence (Q99705 whole entry): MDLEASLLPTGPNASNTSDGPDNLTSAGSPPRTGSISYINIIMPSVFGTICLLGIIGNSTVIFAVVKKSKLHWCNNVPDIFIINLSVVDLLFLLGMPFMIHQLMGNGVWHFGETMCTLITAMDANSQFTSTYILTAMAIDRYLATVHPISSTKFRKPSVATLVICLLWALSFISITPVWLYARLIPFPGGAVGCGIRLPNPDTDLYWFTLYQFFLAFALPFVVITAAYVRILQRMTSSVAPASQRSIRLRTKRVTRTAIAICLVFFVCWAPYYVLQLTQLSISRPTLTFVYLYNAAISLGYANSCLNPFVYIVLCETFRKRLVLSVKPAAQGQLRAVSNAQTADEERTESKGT
Chain of Sodium-dependent serotonin transporter (P31645 whole entry): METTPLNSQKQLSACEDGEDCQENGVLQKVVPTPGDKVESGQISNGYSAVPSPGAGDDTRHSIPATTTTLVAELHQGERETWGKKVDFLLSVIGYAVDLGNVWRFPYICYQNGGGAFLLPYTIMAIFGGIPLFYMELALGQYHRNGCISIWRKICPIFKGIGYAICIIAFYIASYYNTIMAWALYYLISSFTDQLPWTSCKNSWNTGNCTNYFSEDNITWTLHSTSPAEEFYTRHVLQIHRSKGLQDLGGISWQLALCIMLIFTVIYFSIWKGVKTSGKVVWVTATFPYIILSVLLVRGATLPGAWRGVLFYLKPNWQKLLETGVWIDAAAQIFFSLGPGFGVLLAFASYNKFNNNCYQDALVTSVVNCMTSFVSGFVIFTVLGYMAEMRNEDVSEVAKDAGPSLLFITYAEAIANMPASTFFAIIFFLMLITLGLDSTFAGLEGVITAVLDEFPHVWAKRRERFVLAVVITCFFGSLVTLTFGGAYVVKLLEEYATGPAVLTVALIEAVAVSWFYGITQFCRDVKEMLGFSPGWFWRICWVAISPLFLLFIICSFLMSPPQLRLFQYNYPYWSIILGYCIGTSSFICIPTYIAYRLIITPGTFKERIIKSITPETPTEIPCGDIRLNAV
Chain of D(2) dopamine receptor (P14416 whole entry): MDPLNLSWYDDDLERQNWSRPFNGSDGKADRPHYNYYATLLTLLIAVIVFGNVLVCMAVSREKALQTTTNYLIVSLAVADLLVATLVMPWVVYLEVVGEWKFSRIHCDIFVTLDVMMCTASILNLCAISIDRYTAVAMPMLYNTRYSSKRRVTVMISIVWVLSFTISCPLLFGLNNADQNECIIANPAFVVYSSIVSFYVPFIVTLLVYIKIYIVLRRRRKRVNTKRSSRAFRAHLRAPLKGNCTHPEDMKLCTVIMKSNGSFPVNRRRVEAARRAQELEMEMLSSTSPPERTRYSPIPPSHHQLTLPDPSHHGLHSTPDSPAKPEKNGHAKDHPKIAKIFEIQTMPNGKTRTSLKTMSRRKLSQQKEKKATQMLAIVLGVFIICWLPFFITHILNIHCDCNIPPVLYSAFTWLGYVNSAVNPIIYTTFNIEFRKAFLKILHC

COC(=O)n1c2ccccc2c2cc(CN3CCC4(C=Cc5ccccc54)CC3)ccc21
IC50 [1]: 300 nM

CN(C)C(=O)n1c2ccccc2c2cc(CN3CCC4(C=Cc5ccccc54)CC3)ccc21
IC50 [1]: 4 nM

CCn1c2ccccc2c2cc(CN3CCC4(CC3)c3ccccc3CC4NC(C)=O)ccc21 (racemic)
IC50 [1]: 250 nM

O[C@@H]1Cc2ccccc2C12CCN(Cc1ccc3[nH]c4ccccc4c3c1)CC2
IC50 [1]: 10 nM | clearance [2]: 145 mL/min/kg | MRT [3]: 2.8 h | bioavailability [4]: 5.9%

CC(=O)N[C@H]1c2ccccc2C2(CCN(Cc3ccc4[nH]c5ccccc5c4c3)CC2)[C@@H]1O (racemic)
IC50 [1]: 8 nM

C1=CC2(CCN(Cc3ccc4[nH]c5ccccc5c4c3)CC2)c2ccccc21
IC50 [1]: 100 nM

CCn1c2ccccc2c2cc(CN3CCC4(CC3)c3ccccc3[C@H](NC(C)=O)[C@H]4O)ccc21 (racemic)
IC50 [1]: 100 nM | clearance [2]: 36.7 mL/min/kg | MRT [3]: 14.2 h | bioavailability [4]: 9%

CCn1c2ccccc2c2cc(C(=O)N3CCC4(C=Cc5ccccc54)CC3)ccc21
IC50 [1]: 60000 nM

CC(=O)n1c2ccccc2c2cc(CN3CCC4(C=Cc5ccccc54)CC3)ccc21
IC50 [1]: 70 nM

CCn1c2ccccc2c2cc(CN3CCC4(CC3)c3ccccc3[C@H](O)[C@H]4O)ccc21 (racemic)
IC50 [1]: 150 nM

NC(=O)n1c2ccccc2c2cc(CN3CCC4(C=Cc5ccccc54)CC3)ccc21
IC50 [1]: 4 nM

CCn1c2ccccc2c2cc(CN3CCC4(C=Cc5ccccc54)CC3)ccc21
IC50 [1]: 1000 nM | IC50 [5]: 20000 nM

CCn1c2ccccc2c2cc(CN3CCC4(CC3)c3ccccc3[C@H](O)[C@@H]4O)ccc21 (racemic)
IC50 [1]: 250 nM

CCn1c2ccccc2c2cc(CN3CCC4(CC3)CC(O)c3ccccc34)ccc21 (racemic)
IC50 [1]: 200 nM

CCn1c2ccccc2c2cc(CCN3CCC4(C=Cc5ccccc54)CC3)ccc21
IC50 [1]: 10000 nM

CCn1c2ccccc2c2cc(NC(=O)N3CCC4(C=Cc5ccccc54)CC3)ccc21
IC50 [1]: 60000 nM

CC(=O)N[C@@H]1CC2(CCN(Cc3ccc4[nH]c5ccc(F)cc5c4c3)CC2)c2ccccc21
IC50 [1]: 10 nM

CC(=O)N[C@@H]1CC2(CCN(Cc3ccc4c(c3)c3ccccc3n4C(N)=O)CC2)c2ccccc21
IC50 [1]: 1 nM | Ki [6]: 13 nM | Activity [7]: inactive | Activity [8]: inactive | IC50 (D(2) dopamine receptor): 1500 nM | IC50 [9]: 10000 nM | clearance [2]: 16.7 mL/min/kg | MRT [3]: 18 h | bioavailability [4]: 37% | clearance [10]: 10 mL/min/kg | MRT [11]: 11 h | bioavailability [12]: 73% | clearance [13]: 10 mL/min/kg | MRT [14]: 6.1 h | bioavailability [15]: 47% | Ratio IC50 (Homo sapiens [16]): > 500 | Ratio IC50 (Homo sapiens [17]): > 500 | IC50 [18]: 2000 nM

CC(=O)N[C@@H]1CC2(CCN(Cc3ccc4[nH]c5ccc(C(F)(F)F)cc5c4c3)CC2)c2ccccc21
IC50 [1]: 678 nM

CCn1c2ccccc2c2cc(CN3CCC4(CC3)c3ccccc3CC4O)ccc21 (racemic)
IC50 [1]: 30 nM

CS(=O)(=O)n1c2ccccc2c2cc(CN3CCC4(C=Cc5ccccc54)CC3)ccc21
IC50 [1]: 200 nM

CC(=O)N[C@@H]1CC2(CCN(Cc3ccc4[nH]c5ccc(Cl)cc5c4c3)CC2)c2ccccc21
IC50 [1]: 1 nM | IC50 (D(2) dopamine receptor): 500 nM | IC50 [9]: 100 nM | clearance [2]: 13.3 mL/min/kg | MRT [3]: 9.2 h | bioavailability [4]: 49%

CC(=O)N[C@@H]1CC2(CCN(Cc3ccc4[nH]c5ccc(Br)cc5c4c3)CC2)c2ccccc21
IC50 [1]: 10 nM

O[C@H]1Cc2ccccc2C12CCN(Cc1ccc3[nH]c4ccccc4c3c1)CC2
IC50 [1]: 80 nM

CC(=O)N[C@H]1CC2(CCN(Cc3ccc4[nH]c5ccccc5c4c3)CC2)c2ccccc21
IC50 [1]: 13 nM

CCn1c2ccccc2c2cc(CCCN3CCC4(C=Cc5ccccc54)CC3)ccc21
IC50 [1]: 15000 nM

CC(=O)N[C@@H]1CC2(CCN(Cc3ccc4[nH]c5ccccc5c4c3)CC2)c2ccccc21
IC50 [1]: 0.1 nM | clearance [2]: 20 mL/min/kg | MRT [3]: 18.2 h | bioavailability [4]: 7.5%

CCC(=O)n1c2ccccc2c2cc(CN3CCC4(C=Cc5ccccc54)CC3)ccc21
IC50 [1]: 100 nM

CCn1c2ccccc2c2cc(CN3CCC4(CC3)CC(NC(C)=O)c3ccccc34)ccc21 (racemic)
IC50 [1]: 0.1 nM
